Experimental data taken from a melting point compilation (Tetko et al.; mined from patent text by program, amines drawn as free bases though some values may be those of a salt).

Row | Compound | melting point [°C]
1 | Cc1ccc(S(=O)(=O)Oc2ccc(S(=O)(=O)c3c(C(C)C)cn4ccccc34)cc2)cc1 | 180 to 183
2 | CCCC(=O)C1=C(O)CC(c2cc([N+](=O)[O-])ccc2F)CC1=O (stereo not given) | 132
3 | CC1(C)C=C(N2CCCC2=O)c2cc(C#N)ccc2C1 | 131 to 132
4 | CC(C)(C)OC(=O)NCCNC(=O)c1ncccc1Oc1ccccc1 | 97 to 98
5 | COC(=Cc1ccc(-c2cccc(N(C)C(=O)NC3CCCCC3)c2)cc1)C(=O)O | 192
6 | N#Cc1ccc(OCCc2coc(-c3ccccc3)n2)cc1 | 115
7 | COCCOc1cc(NS(=O)(=O)c2ccccn2)c2[nH]c(C3=NCC(CN4CCS(=O)(=O)CC4)S3)cc2c1 (stereo not given) | 218 to 219
8 | CC(=O)SCCC(=O)N1CCC[C@H]1C(=O)O | 89 to 90
9 | Cc1nc2c3c(ccc2n1C)[C@H]1OCCO[C@@H]1[C@@H](c1ccccc1)O3 | 307
10 | O=C(O)c1ccc(CCCCc2ccccc2Oc2ccccc2)cc1 | 120
11 | O=C(Nc1ccccc1N1CCOCC1)c1cccc2c1C(=O)c1ccccc1-2 | 154 to 156
12 | CC(c1ccccc1)C(C)([N+](=O)[O-])[N+](=O)[O-] (stereo not given) | 76 to 78
13 | Cc1ncc(C(=O)N2CCC(=O)CC2)c(C)n1 | 116
14 | CCCc1c(Cc2ccccc2)ccc2c(=O)cc(CCC(=O)O)oc12 | 160 to 161
15 | O=C(CCc1ccccc1)Nc1ccc([N+](=O)[O-])cc1 | 117 to 119
16 | N#CC(C#N)=C1N(CCCN2CCCCC2)CCN1C1CCN(CCF)CC1 | 56 to 57
17 | CNC(=O)c1cc(O)cc2c1N(C)C1N(C)CCC21C (stereo not given) | 202 to 204
18 | C[C@@H](n1cnc2ccc(Br)cc2c1=O)[C@](O)(Cn1cncn1)c1ccc(F)cc1F | 182 to 183
19 | Cc1nnc(-c2ccc3occ(-c4cc(F)ccc4Cl)c3c2)o1 | 130 to 131
20 | COc1ccnc(N2CCN(Cc3ccc(C(C)(C)NC(C)=O)cc3)CC2)n1 | 160 to 162
21 | CC(C)(O)Cn1cnc2c(N)nc3cc(CCS(C)(=O)=O)ccc3c21 | 269 to 271
22 | Cc1cc(C#N)cc(Oc2nc(Cl)nc(Cl)c2C(C)C)c1 | 143 to 144
23 | CCCc1c(OCCCOc2ccc3ccc(OCC(=O)O)cc3c2C(C)=O)ccc(C(C)=O)c1O | 140 to 141
24 | Cc1ccc2c(=O)n(C3CCC(=O)NC3=O)cnc2c1 (stereo not given) | 313 to 315
25 | Cc1nc2ccc(Cl)cc2n2c(-c3ccccc3Cl)nnc12 | 209

Row | Compound | melting point [°C]
26 | Cc1cc(CNC(=O)C(=O)NCCc2ccccn2)c(C)o1 | 112 to 115
27 | CC(=O)Oc1ccc(-c2ccc(CO)cc2S(=O)CC[Si](C)(C)C)cc1C (stereo not given) | 132 to 134
28 | CC(=O)c1ccc(NS(C)(=O)=O)c(S(=O)c2ccc(F)cc2F)c1 (stereo not given) | 151 to 152
29 | CC(=O)NC[C@H]1CN(c2ccc(N3CCSC3)c(F)c2)C(=O)O1 | 103 to 105
30 | CC(CSC(=S)c1ccc(F)cc1)C(=O)N1CCCC1C(=O)O (stereo not given) | 114 to 115
31 | COc1ccc2c(c1)OC(=O)N(C1CCCCC1)C2 | 76 to 77
32 | NC(=O)c1ccc2[nH]cc(C3=CCNCC3)c2c1 | 225 to 230
33 | CCOc1ccc2[nH]ccc2c1OCc1ccccc1 | 122 to 123
34 | CCCCCN1N=C(c2ccc(OCC)c(OCC)c2)[C@@H]2CCCC[C@@H]2C1=O (relative stereo) | 98 to 99
35 | Cc1cc(=O)n(-c2cc(C(=O)OC(C)C)c(C#N)cc2F)c(=O)n1C | 188 to 200
36 | CCOC(=O)c1c(CN(CC)CC)nc2sc3c(c2c1-c1ccc(Cl)cc1)CCNC3 | 104 to 106
37 | CC(=O)CC(=O)Nc1ccc(C(F)(F)F)cc1 | 144 to 145
38 | C=CCCc1ccc(C=NN=Cc2ccc(CCC=C)cc2)cc1 | 57
39 | O=c1c2c(c3cccnc3n1-c1ccccc1)OCCC2 | 253 to 255
40 | CN(Cc1ccc(NC(=O)/C=C/c2ccc(-c3ccc(C(C)(C)C)cc3)s2)cc1)C1CCOCC1 | 216 to 220
41 | O=C(Nc1ccc(-n2nc(C(F)(F)F)cc2C(F)(F)F)cc1)c1cccnc1 | 185 to 188
42 | COc1cccc(OC2COc3ccc(OCc4ccc5ccccc5n4)cc3C2O)c1 (stereo not given) | 128 to 129
43 | Cc1cc(NNC(=O)OC(C)(C)C)nnc1-c1ccc(C#N)cc1 | 169 to 171
44 | COc1ccccc1-c1cc(C2CCN(Cc3ccc(Cl)cc3)CC2)n[nH]1 | 102 to 103
45 | Cc1c(Sc2ccc(Cl)cc2)nn(-c2ccc(Cl)cc2)c(=O)c1C#N | 177 to 179
46 | CC(C)(C)OC(=O)NCCN(CC(=O)O)C(=O)OCc1ccccc1 | 64.5 to 85
47 | COc1ccc(-c2c(C(=O)N3CCOCC3)ccc3cc(Cl)ccc23)cc1OC | 157 to 159
48 | CC12CCC(OC(=O)c3ccc(N)cc3)CC1=CCC1C2CCC2(C)C(=NO)CCC12 (stereo not given) | 165 to 168
49 | C#CCOC(=O)c1ncn2c1CN(C)C(=O)c1c(Cl)cccc1-2 | 198 to 200
50 | O=C(CCc1ccccc1)N[C@H](Cc1ccc(C(F)(F)F)cc1)[C@@H](O)c1ccc(Cl)nc1 (racemic) | 149 to 150

Row | Compound | melting point [°C]
51 | CC(C)(C)OC(=O)N1CCC(COc2ccc(C=NO)cc2)CC1 | 140 to 142
52 | Nc1ccc(C(=O)c2ccc(N)cc2)cc1 | 241
53 | CCC1OC(=O)Nc2ccc(-c3cccc(Cl)c3)cc21 (stereo not given) | 146 to 148
54 | CC(C)(N)c1ccc(C(=O)Nc2cn3cc(Cl)ccc3n2)cc1 | 235 to 237
55 | Cc1cc(C)cc(-c2cc(O)c(Sc3ccccc3CC3CC3)c(=O)o2)c1 | 168
56 | O=C(Nc1ccc(OC(F)(F)F)cc1)NC1CCN(S(=O)(=O)c2ccccc2)CC1 | 188 to 189
57 | CC(C)(C)OC(=O)N1CCC[C@H]1COc1cccc2[nH]ncc12 | 125
58 | COc1ccc(Br)c2c1CC(=O)CO2 | 97 to 100
59 | CCOC(=O)c1cn(C)c2nc3c(F)c(N4CCNC(c5ccc(OC)cc5)C4)c(F)cc3cc2c1=O (racemic) | 209
60 | Cc1ccc(C2=C(C#N)C(c3cccc4nonc34)c3c[nH]nc3N2)s1 (stereo not given) | 192
61 | COc1cc(CCCn2cncn2)ccc1OCc1coc(/C=C/c2ccccc2)n1 | 113 to 114
62 | CCCCOc1cc(C(=O)O)cc(S(N)(=O)=O)c1-c1ccccc1 | 129 to 131
63 | Cn1nc(COc2ccc(CCCC#N)cc2)nc1-c1ccccc1 | 106 to 107
64 | O=S(=O)(CC(F)(F)F)c1nc2cc(Cl)c(Cl)cc2[nH]1 | 190 to 192
65 | O=C(O)c1ccc(-c2noc(-c3ccc(C(F)(F)F)cc3)n2)cc1 | 286 to 287
66 | Fc1ccc(Nc2ncnc3cnc(OC4CCOC4)nc23)cc1Cl (stereo not given) | 163 to 165
67 | CN(Cc1cc2c3c(c1)c(=O)c(C(=O)NCc1ccc(F)cc1)cn3CC(=O)N2C)C[C@@H](O)c1ccccc1 | 150 to 152
68 | CC(S)CNC(=O)OCc1ccc([N+](=O)[O-])cc1 (stereo not given) | 54 to 56.5
69 | O=C(O)CCCCCn1c(=O)c2ccccc2n(CCCCN2CCC(OC(c3ccccc3)c3ccccc3)CC2)c1=O | 155 to 157
70 | Cc1[nH]c2ccc(F)cc2c1CCC(=O)N1CCN(c2ccccc2)CC1 | 170 to 172
71 | COc1cc(C(=O)Cc2ccccc2)cc([N+](=O)[O-])c1O | 129 to 130
72 | CCN(C(C)=O)c1cccc(C(=O)C=CN(C)C)c1 | 110 to 113
73 | O=C(Nc1ccc(F)c(C(F)(F)F)c1)c1cccc2cc(OS(=O)(=O)C(F)(F)F)ccc12 | 171 to 172
74 | CC(=O)Cc1ccc(-c2ccc(Cl)cc2)cc1 | 79 to 81
75 | CCc1nc2c(cnn2CC)c(NC2CCOCC2)c1CNC(=O)c1cccc(C(=O)NCc2cc(Cl)cc(-c3cccc(CN4CCNC(C)C4)c3)c2)c1 (stereo not given) | 119 to 121

Row | Compound | melting point [°C]
76 | Cc1cnc(C)c(N(CCN(C)C)C(=O)N(C)C)n1 | 96 to 98
77 | Nc1cc(N2CCCC2)c2c(Cl)ccc3c2c1C(=O)N(O)C3=O | 211 to 213
78 | CC(C)C(CO)(CO)[N+](=O)[O-] | 67 to 72
79 | N#CSc1ccc(N)c([N+](=O)[O-])c1 | 110 to 112
80 | CC(=C1SCSCS1)c1ccc(OCCCN2CCOCC2)cc1 | 95 to 98
81 | Brc1cnc(N2CCCC2)c(OCC2CCCC2)n1 | 54 to 55
82 | Cc1ccc(C2c3c(C)c(Br)c(C)c(C=O)c3OC2(C)C)cc1 (stereo not given) | 128 to 130
83 | COc1cc(N)c(Cl)cc1C(=O)NCC1CCN(CCC(=O)c2ccc(O)cc2)CC1 | 191 to 193
84 | NS(=O)(=O)c1cccc(-c2cccc(-c3nc(-c4ccc(C(F)(F)F)cc4F)cc(C(F)(F)F)n3)c2)c1 | 224
85 | Cn1cc(-c2ccccc2)c(=O)c(-c2cccc([N+](=O)[O-])c2)c1 | 135 to 136
86 | O=C(NCc1ccccc1)c1ccc(C=CC(=O)N2CCc3c([nH]c4ccccc34)C2c2ccc3c(c2)OCO3)cc1 (stereo not given) | 203
87 | Cc1cc2c(Oc3cccc(C(F)(F)F)c3)nc(CCC(F)(F)F)nc2s1 | 85
88 | N#CCCNC(=S)C1=CC(CF)(CF)Oc2ccc([N+](=O)[O-])cc21 | 114 to 116
89 | Cc1ccc(C(=O)NC(NC(=S)Nc2cc(F)ccc2F)C(F)(F)F)cc1 (stereo not given) | 183 to 185
90 | CNc1cc(F)ccc1-c1c(C#N)n[nH]c1-c1ccc(S(C)(=O)=O)cc1 | 192 to 193
91 | CCCc1cc(=O)oc2cc(O)c3c(c12)OC(C)(C)C=C3 | 190 to 192
92 | CS(=O)c1ccc(-n2cnc3ccc(-c4nnc(S)o4)cc32)cc1 (stereo not given) | 299 to 300
93 | CC1(C)C[C@H]2c3cccc4c3N(CCNC4)[C@H]2C1 | 155 to 157
94 | COc1ccc(-c2cc(C=O)c3occc3c2)cc1 | 94 to 95
95 | NC(=O)N(O)CC(=O)Nc1cccc(OCc2ccccc2)c1 | 177 to 178
96 | CCOC(=O)C(=C(NC)NCc1ccc(Cl)nc1)[N+](=O)[O-] | 231 to 233
97 | O=C(Nc1ccsc1)c1ccccc1 | 155 to 156
98 | COc1cc(C(F)(F)F)cnc1O | 115 to 117
99 | O=C(NCCCCCCO)OCc1ccccc1 | 67 to 68
100 | COc1ccc(-c2nsc3ccc([N+](=O)[O-])cc23)cc1 | 207
